According to ChEMBL document CHEMBL1152465, “Comparative evaluation of the inhibitory activities of a series of pyrimidinedione congeners that inhibit human immunodeficiency virus types 1 and 2” (Antimicrob Agents Chemother, 2008):
Activity calls are given as the source filed them.

Experiments:
[1] = tested on: Human immunodeficiency virus 1; assay: Antiviral activity against HIV1 infected in human HeLa cells expressing CD4-LTR assessed as inhibition of viral entry-related beta galactosidase expression at > 0.5 uM followed by drug wash out and viral infection measured after 48 hrs by MAGI assay; assay type: functional, organism-based
[2] = tested on: Human immunodeficiency virus 2; assay: Antiviral activity against HIV2 ROD infected in human CEM-SS cells assessed as inhibition of virus-induced cytopathic effect by XTT assay; assay type: functional, organism-based, ISOLATE ROD; details: Human immunodeficiency virus 2, ISOLATE ROD, CEM-SS; read-out: EC50
[3] = Therapeutic index, ratio of TC50 for human CEM-SS cells to EC50 for HIV1 RF infected in human CEM-SS cells; assay type: cell-based; details: read-out: TI
[4] = Therapeutic index, ratio of TC50 for human CEM-SS cells to EC50 for HIV2 ROD infected in human CEM-SS cells; assay type: cell-based; details: CEM-SS cells, read-out: TI
[5] = target: Human immunodeficiency virus type 1 reverse transcriptase (Human immunodeficiency virus 1, UniProt Q72547); assay: Inhibition of wild type HIV1 reverse transcriptase assessed as 32P-labeled GMP incorporation into nascent DNA strand
[6] = target: Human immunodeficiency virus type 1 reverse transcriptase (Human immunodeficiency virus 1, UniProt Q72547, K103N); assay: Inhibition of HIV1 reverse transcriptase K103N mutant assessed as 32P-labeled GMP incorporation into nascent DNA strand
[7] = tested on: Human immunodeficiency virus 1; assay: Antiviral activity against HIV1 infected in human HeLa cells expressing CD4-LTR assessed as inhibition of viral entry-related beta galactosidase expression treated for 2 hrs followed by drug wash out measured after 48 hrs by MAGI assay; assay type: functional, organism-based; details: for EC50: Human immunodeficiency virus 1, HeLa
[8] = Cytotoxicity against human HeLa cells expressing CD4-LTR by XTT assay; assay type: cell-based; details: read-out: TC50 (the source's name)
[9] = Therapeutic index, ratio of TC50 human HeLa cells expressing CD4-LTR to EC50 for HIV1 entry inhibition in human HeLa cells expressing CD4-LTR; assay type: cell-based; details: read-out: TI
[10] = tested on: Human immunodeficiency virus 1; assay: Antiviral activity against HIV1 infected in human CEM-SS cells assessed as inhibition of viral replication and virus-induced cytopathic effect by dose-response curve analysis; assay type: functional; details: Human immunodeficiency virus 1, CEM-SS
[11] = tested on: Human immunodeficiency virus 1; assay: Antiviral activity against HIV1 infected in human HeLa cells expressing CD4-LTR assessed as inhibition of viral entry-related beta galactosidase expression at 0.5 uM followed by drug wash out and viral infection measured after 48 hrs by MAGI assay; assay type: functional, organism-based
[12] = tested on: Human immunodeficiency virus 2; assay: Inhibition of HIV2 reverse transcriptase
[13] = tested on: Human immunodeficiency virus 2; assay: Antiviral activity against HIV2 assessed as inhibition of viral single round replication at early time point; assay type: functional, organism-based
[14] = tested on: Human immunodeficiency virus 2; assay: Antiviral activity against HIV2 assessed as inhibition of viral replication treated at time points after viral entry into host cells; assay type: functional, organism-based
[15] = tested on: Human immunodeficiency virus 2; assay: Inhibition of HIV2 reverse transcriptase assessed as 32P-labeled GMP incorporation into nascent DNA strand at highest concentration
HeLa = assay: Inhibition of HIV1 gp120/CD4 interaction assessed as inhibition of gp120 and gp41 coexpressing human HL2/3 cell fusion to CD4 expressing human HeLa cells treated for 2 hrs measured after 48 hrs by chemiluminescence assay; assay type: cell-based; details: Human immunodeficiency virus 1
[16] = tested on: Simian immunodeficiency virus; assay: Antiviral activity against SIV MAC251 infected in human 174xCEM cells assessed as inhibition of virus-induced cytopathic effect; assay type: functional, organism-based
[17] = tested on: Human immunodeficiency virus 2; assay: Antiviral activity against HIV2 infected in human CEM-SS cells assessed as inhibition of viral replication and virus-induced cytopathic effect by dose-response curve analysis; assay type: functional; details: Human immunodeficiency virus 2, CEM-SS
[18] = tested on: Human immunodeficiency virus 1; assay: Antiviral activity against HIV1 RF infected in human CEM-SS cells assessed as inhibition of virus-induced cytopathic effect by XTT assay; assay type: functional, organism-based; details: Human immunodeficiency virus 1, RF
[19] = Cytotoxicity against human CEM-SS cells by XTT assay; assay type: cell-based; details: read-out: TC50 (the source's name)
[20] = tested on: Human immunodeficiency virus 1; assay: Antiviral activity against HIV1 infected in human HeLa cells expressing CD4-LTR assessed as inhibition of viral entry-related beta galactosidase expression at > 10 ug/ml followed by drug wash out and viral infection measured after 48 hrs by MAGI assay; assay type: functional, organism-based
[21] = tested on: Human immunodeficiency virus 1; assay: Antiviral activity against HIV1 infected in human HeLa cells expressing CD4-LTR assessed as inhibition of viral entry-related beta galactosidase expression pretreated 2 hrs before viral infection measured after 48 hrs of infection by MAGI assay; assay type: functional, organism-based
[22] = tested on: Human immunodeficiency virus 1; assay: Antiviral activity against HIV1 infected in human HeLa cells expressing CD4-LTR assessed as inhibition of viral entry-related beta galactosidase expression at 0.2 to 0.4 uM followed by drug wash out and viral infection measured after 48 hrs by MAGI assay; assay type: functional, organism-based

Row | Structure (SMILES) | EC50 [2] [µM] | selectivity ratio [3] | selectivity ratio [4] | IC50 [5] [µM] | IC50 [6] [µM] | EC50 [7] [µM] | CC50 [8] [µM] | selectivity ratio [9] | EC99 [10] [µM] | Activity [12] | Activity [13] | Activity [14] | Activity [15] | inhibition (HeLa) | Activity [16] | EC99 [17] [µM] | EC50 [18] [µM] | CC50 [19] [µM] | also measured
1 | Cc1cn([C@H]2C[C@H](N=[N+]=[N-])[C@@H](CO)O2)c(=O)[nH]c1=O |  |  |  |  |  |  |  |  |  |  |  |  |  |  |  |  |  |  | Activity [1]: inactive
2 | CCc1c(C(=O)c2cc(C)cc(C)c2)n(CC2CC=CC2)c(=O)[nH]c1=O | 16 | 553000 | > 71 | 0.179 | 2.6 | 0.07 | 1120 | 15700 | 1 | inactive | Active | inactive | inactive | inactive | inactive | 100 | 0.002 | 1100 | Activity [11]: inactive
3 | Cc1cc(C)cc(C(=O)c2c(C(C)C)c(=O)[nH]c(=O)n2CC2CC2)c1 | 0.1 | 2.55e+06 | 13000 | 1.97 | 2.7 | 0.012 | 1180 | 101000 | 0.001 | inactive | Active | inactive | inactive | inactive | inactive | 10 | 0.0005 | 1200 | 
4 | COc1cc(-c2ccc(/N=N/c3ccc4c(S(=O)(=O)O)cc(S(=O)(=O)O)c(N)c4c3O)c(OC)c2)ccc1/N=N/c1ccc2c(S(=O)(=O)O)cc(S(=O)(=O)O)c(N)c2c1O |  |  |  |  |  |  |  |  |  |  |  |  |  |  |  |  |  |  | Activity [7]: Active; Activity [20]: inactive; Activity [21]: Active
5 | Cc1cc(C)cc(C(=O)c2c(C(C)C)c(=O)[nH]c(=O)n2CC2CC=CC2)c1 | 15.5 | 491000 | > 75 | 0.651 | 23 | 0.41 | 1120 | 2690 | 1 | inactive | Active | inactive | inactive | inactive | inactive | 100 | 0.0022 | 1100 | 
6 | CCc1c(Oc2cc(C)cc(C)c2)n(CC2CC2)c(=O)[nH]c1=O | 0.6 | 215000 | > 2100 | 0.016 | 0.21 | 0.006 | 1280 | 202000 | 1 | inactive | Active | inactive | inactive | inactive | inactive | 10 | 0.006 | 1300 | 
7 | Cc1cc(C)cc(C(=O)c2c(C(C)C)c(=O)[nH]c(=O)n2CC2=CCCC2)c1 | 0.1 | 523000 | 122 | 0.02 | 1.6 | 0.009 | 20.8 | 2290 | 0.001 | inactive | Active | inactive | inactive | inactive | inactive | 1 | 0.0001 | 16.7 | 
8 | O=C1Nc2ccc(Cl)cc2[C@@](C#CC2CC2)(C(F)(F)F)O1 [EFAVIRENZ] |  |  |  |  |  |  |  |  |  |  |  |  |  |  |  |  |  |  | Activity [7]: 0.02 µM; Activity [22]: Active
9 | Cc1cc(C)cc(Oc2c(C(C)C)c(=O)[nH]c(=O)n2Cc2ccccc2)c1 | 0.1 | 2720 | 278 | 0.114 | 0.975 | 0.009 | 38.2 | 4180 | 1 | inactive | Active | inactive | inactive | inactive | inactive |  | 0.014 | 38.2 | 
